Where “and” joins values, the source holds several entries; their conditions need not be identical. Identical values can stand only once. Calls of active or inactive are those of the source.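 The calls were made as follows: active = compounds giving half or more protection of infected cells from virus-caused growth loss, again on retest; inactive = the rest.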
Tested on: CEM cells HIV-1 protection, formazan growth assay
Experiment: NCI AIDS Antiviral Assay
Settings: for IC50: measured here: growth of uninfected CEM cells
Outline: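 Steps: treat uninfected and HIV-1-infected human CEM cells at five drug levels; quantify growth by soluble formazan; retest any compound reaching 50% protection; classify actives from the retest.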

| SMILES | EC50 | IC50 | outcome |
| --- | --- | --- | --- |
| Cc1ncc([N+](=O)[O-])n1CCNC(=O)Cn1c([N+](=O)[O-])cnc1C | > 200 µM | > 200 µM |  |
| Cc1nn2c(nnn2CCO)c1-c1ccccc1 | > 1020 µM | 407 µM |  |
| O=C1CCC2(c3ccc(Cl)cc3)Nc3ccccc3N12 (stereo not given) |  |  | inactive |
| OCC1OC(c2ccccc2)CC1O (stereo not given) | > 200 µM | > 200 µM |  |
| CCN1C[C@]2(COC(=O)c3ccccc3N3C(=O)CC(C)C3=O)CCC(OC)C34[C@@H]5C[C@@H]6C(OC)[C@@H]5[C@](O)(C[C@@H]6OC)[C@@](O)([C@H]13)[C@@H](OC)[C@@H]42 (stereo not given in full) |  |  | inactive |
| O=c1[nH]nc(Nc2ccccc2)c2nnn(Cc3ccccc3)c12 |  |  | inactive |
| Cc1c(-c2ccccc2)sc(/N=C/c2cc(Br)cc(Br)c2O)c1C#N | > 20 µM | 0.708 µM |  |
| O=C(c1ccc(Cl)cc1)c1cnc(Nc2ccccc2Cl)s1 | > 10.7 µM | > 10.7 µM |  |
| CC1CCCN(CCSSCCN2CCCC(C)C2)C1 (stereo not given) | > 200 µM | 70.8 µM |  |
| CCN1C[C@]2(C)CC[C@H](OC)C34C1C([C@H](OC(C)=O)[C@@H]32)[C@@]1(OC)C[C@H](OC)[C@H]2C[C@@H]4[C@@H]1[C@H]2O | > 77.6 µM | > 77.6 µM |  |
| CCN(CC)CC(=O)Nc1ccc2c(c1)C(=O)c1ccc(NC(=O)CN(CC)CC)cc1C2=O | > 100 µM | 2.09 µM |  |
| S=C(N1CCN(c2ccccc2)CC1)N1CCN(c2ccccc2)CC1 | > 200 µM | > 200 µM |  |
| O=C1CCCn2c(nc3ccccc32)N1 | > 200 µM | > 200 µM |  |
| Cc1[nH]c(=O)nc(N/N=C/c2ccc(Cl)cc2)c1C(=O)Nc1ccc(Cl)cc1 |  |  | inactive |
| CCOP(=O)(OCC)/C(=C\NC(=S)N=Nc1c(O)[nH]c2ccccc12)C(=O)OC | > 200 µM | 117 µM |  |
| C/C=C(\C)C(=O)O[C@@H]1CC[C@]2(CO2)C2(COC(C)=O)C(OC(C)=O)CC(C)[C@](C)(C[C@H](O)C3=CC(=O)OC3)[C@@H]12 (stereo not given in full) |  |  | inactive |
| O=C1CCCCCN1C(=O)c1ccccc1 | > 1150 µM | 53.7 µM |  |
| COc1cc(/C=C2/SC(c3ccccc3)N(Cc3ccccc3)C2=O)cc(OC)c1OC (stereo not given) | > 200 µM | 25.7 µM |  |
| OCCCNCC(O)c1ccc(OCc2ccccc2)c(OCc2ccccc2)c1 (stereo not given) | > 200 µM | 5.13 µM |  |
| N/C(=N\NS(=O)(=O)c1ccccc1)Oc1ccc(Br)cc1Br | > 112 µM | > 112 µM |  |
| COc1cccc(NC(=O)CC(=O)N2N=C(C)C(N=Nc3ccc(C(=O)O)cc3)C2=O)c1 (stereo not given) | > 200 µM | 63.1 µM |  |
| O=C1CCN2CCC(=O)c3c2c(cc2ccccc32)N1 | > 26.9 µM | > 26.9 µM |  |

| SMILES | EC50 | IC50 | outcome |
| --- | --- | --- | --- |
| CCOC(=O)c1ccc(N(CC/C(CN)=N/NC(N)=O)C(C)=O)cc1 | > 646 µM | 363 µM |  |
| O=S(=O)(CCCCl)SCCCCl | > 145 µM | 20 µM |  |
| CNC(=O)Nc1ccncc1 | > 200 µM | > 200 µM |  |
| N#Cc1nc(COCCOCc2ccccc2)oc1N | > 110 µM | 107 µM |  |
| C=CCNC(=S)NNC(=S)NCC=C | > 200 µM | 23.4 µM |  |
| O=C1OCC23CCC4C1C42CC1(CC3)OCCO1 (stereo not given) | > 200 µM | > 200 µM |  |
| O=C(NC1C2CC3CC(C2)CC1C3)/C(Cl)=C1/Sc2ccccc2NC1=O (stereo not given) | > 5.13 µM | > 5.13 µM |  |
| O=C1CCCN1C(=O)CS(=O)(=O)c1ccccc1 | > 200 µM | > 200 µM |  |
| CCOc1nnc(C)o1 | > 1510 µM | > 1510 µM |  |
| O=C1C=CC2C3C(=O)N(c4ccccc4)C(=O)C3C1N2Cc1ccccc1 (stereo not given) | > 1.17 µM | > 1.17 µM |  |
| CCN(CC)c1ccc(N=Nc2ccc(-c3nc4ccc[n+](C)c4o3)cc2)cc1 | > 2.04 µM | > 2.04 µM |  |
| OC[C@@H]1C[C@H](F)[C@H](n2cnc3c(Cl)ncnc32)O1 | > 575 µM | 26.3 µM |  |
| COC(=O)[C@]1(C)CCC[C@]2(C)C3CC4OOC3(C=C4C(C)(C)O)CCC21 (stereo not given in full) | > 251 µM | 38.9 µM |  |
| COc1ccc(Br)c(C=Nc2cccc3cc(OC)c(OC)cc23)c1 |  |  | inactive |
| CCCNC(=S)NNC(=O)CSc1nc(-c2ccccc2)c(-c2ccccc2)[nH]1 | > 117 µM | 57.5 µM |  |
| Cc1ccc2c(CC(=O)O)cc(=O)oc2c1C | > 200 µM | 155 µM |  |
| CC(C)(c1ccsc1)c1sccc1C(=O)O | > 200 µM | > 200 µM |  |
| Nc1ccn(CC2OCC(CO)O2)c(=O)n1 (stereo not given) | > 3470 µM | 2950 µM and 3020 µM |  |
| CCOC(=O)C(CCC1OCCO1)C(C)=O (stereo not given) | > 200 µM | > 200 µM |  |
| Cc1ccc2nc(C=Nc3ccc(Cl)cc3)cc(C)c2c1 |  |  | inactive |
| COc1ccc(/C=N/N=C(N)N)c(C(=O)O)c1OC |  |  | inactive |
| O=S(=O)(O)c1ccc(Sc2ccc(S(=O)(=O)O)cc2)cc1 | > 631 µM | > 631 µM |  |
